Test results from patent US8802597B2, “Herbicidal pyrimidines” (E I du Pont de Nemours and Company, priority 2003, dated 2014).

How the values were obtained:
Experiment in all cases: Test C pre/postemergence
Assay type in all cases: in vivo
corn (Zea mays) = settings: Zea mays, post-emergence, Postemergence
Summary of the method: (§1)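 Greenhouse herbicide screen, visual readout. Compound in solvent/surfactant applied preemergence at planting or postemergence to 1- to 4-leaf plants; assessed at 12–14 days on a 0–100 control scale.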

[1] = test system: lambsquarters (Chenopodium album); settings: Chenopodium album, post-emergence, Postemergence
Summary of the method: as §1

kochia (Kochia scoparia) = settings: Bassia scoparia, post-emergence, Postemergence
Summary of the method: as §1

[2] = test system: common ragweed (Ambrosia elatior); settings: Ambrosia artemisiifolia, post-emergence, Postemergence
Summary of the method: as §1

[3] = test system: velvetleaf (Abutilon theophrasti); settings: Abutilon theophrasti, post-emergence, Postemergence
Summary of the method: as §1

[4] = test system: Surinam grass (Brachiaria decumbens); settings: Urochloa decumbens, post-emergence, Postemergence
Summary of the method: as §1

[5] = test system: crabgrass (Digitaria sanguinalis); settings: Digitaria sanguinalis, post-emergence, Postemergence
Summary of the method: as §1

[6] = test system: yellow nutsedge (Cyperus esculentus); settings: Cyperus, post-emergence, Postemergence
Summary of the method: as §1

[7] = test system: goosegrass (Eleusine indica); settings: Eleusine indica, post-emergence, Postemergence
Summary of the method: as §1

[8] = test system: cocklebur (Xanthium strumarium); settings: Xanthium strumarium, post-emergence, Postemergence
Summary of the method: as §1

[9] = test system: pigweed (Amaranthus retroflexus); settings: Amaranthus retroflexus, post-emergence, Postemergence
Summary of the method: as §1

`CCOC(=O)c1nc(-c2ccc(Br)cc2)nc(N)c1Cl` [Compound 94, ethyl 6-amino-2-(4-bromophenyl)-5-chloro-4-pyrimidinecarboxylate] showed a Corn plant response rating (crop injury, 0 = no effect, 100 = complete kill) at 16 g/ha (corn (Zea mays); 16 g ai/ha, read-out: Plant response rating (scale of 0 to 100), Corn) of 10%, a Corn plant response rating (crop injury, 0 = no effect, 100 = complete kill) at 31 g/ha (corn (Zea mays); 31 g ai/ha, read-out: Plant response rating (scale of 0 to 100), Corn) of 35% and a Corn plant response rating (crop injury, 0 = no effect, 100 = complete kill) at 62 g/ha (corn (Zea mays); 62 g ai/ha, read-out: Plant response rating (scale of 0 to 100), Corn) of 35%. For the same compound, the Corn plant response rating (crop injury, 0 = no effect, 100 = complete kill) at 125 g/ha (corn (Zea mays); 125 g ai/ha, scale 0 to 100 (0 no effect, 100 complete control), read-out: Corn plant response rating) was 60%, the pest or weed control at 16 g/ha ([1]; 16 g ai/ha, read-out: Plant response rating (scale of 0 to 100), Lambsquarters) was 95% and the pest or weed control at 31 g/ha ([1]; 31 g ai/ha, read-out: Plant response rating (scale of 0 to 100), Lambsquarters) was 95%. For the same compound, the pest or weed control at 62 g/ha ([1]; 62 g ai/ha, read-out: Plant response rating (scale of 0 to 100), Lambsquarters) was 95%, the pest or weed control at 125 g/ha ([1]; 125 g ai/ha, scale 0 to 100 (0 no effect, 100 complete control), read-out: Lambsquarters plant response rating) was 100% and the pest or weed control at 16 g/ha (kochia (Kochia scoparia); 16 g ai/ha, read-out: Plant response rating (scale of 0 to 100), Kochia) was 75%. For the same compound, the pest or weed control at 31 g/ha (kochia (Kochia scoparia); 31 g ai/ha, read-out: Plant response rating (scale of 0 to 100), Kochia) was 90%, the pest or weed control at 62 g/ha (kochia (Kochia scoparia); 62 g ai/ha, read-out: Plant response rating (scale of 0 to 100), Kochia) was 95% and the pest or weed control at 125 g/ha (kochia (Kochia scoparia); 125 g ai/ha, scale 0 to 100 (0 no effect, 100 complete control), read-out: Kochia plant response rating) was 100%. For the same compound, the pest or weed control at 16 g/ha ([2]; 16 g ai/ha, read-out: Plant response rating (scale of 0 to 100), Ragweed) was 90%, the pest or weed control at 31 g/ha ([2]; 31 g ai/ha, read-out: Plant response rating (scale of 0 to 100), Ragweed) was 90% and the pest or weed control at 62 g/ha ([2]; 62 g ai/ha, read-out: Plant response rating (scale of 0 to 100), Ragweed) was 95%. For the same compound, the pest or weed control at 125 g/ha ([2]; 125 g ai/ha, scale 0 to 100 (0 no effect, 100 complete control), read-out: Ragweed plant response rating) was 100%, the pest or weed control at 16 g/ha ([3]; 16 g ai/ha, read-out: Plant response rating (scale of 0 to 100), Velvetleaf) was 75% and the pest or weed control at 31 g/ha ([3]; 31 g ai/ha, read-out: Plant response rating (scale of 0 to 100), Velvetleaf) was 90%. It also gave a pest or weed control at 62 g/ha ([3]; 62 g ai/ha, read-out: Plant response rating (scale of 0 to 100), Velvetleaf) of 95%, a pest or weed control at 125 g/ha ([3]; 125 g ai/ha, scale 0 to 100 (0 no effect, 100 complete control), read-out: Velvetleaf plant response rating) of 95% and a pest or weed control at 125 g/ha ([4]; 125 g ai/ha, scale 0 to 100 (0 no effect, 100 complete control), read-out: Surinam Grass plant response rating) of 100%. For the same compound, the pest or weed control at 16 g/ha ([4]; 16 g ai/ha, read-out: Plant response rating (scale of 0 to 100), Surinam Grass) was 50%, the pest or weed control at 31 g/ha ([4]; 31 g ai/ha, read-out: Plant response rating (scale of 0 to 100), Surinam Grass) was 60% and the pest or weed control at 62 g/ha ([4]; 62 g ai/ha, read-out: Plant response rating (scale of 0 to 100), Surinam Grass) was 90%. For the same compound, the pest or weed control at 16 g/ha ([5]; 16 g ai/ha, read-out: Plant response rating (scale of 0 to 100), Crabgrass) was 70%, the pest or weed control at 31 g/ha ([5]; 31 g ai/ha, read-out: Plant response rating (scale of 0 to 100), Crabgrass) was 80% and the pest or weed control at 62 g/ha ([5]; 62 g ai/ha, read-out: Plant response rating (scale of 0 to 100), Crabgrass) was 85%. The pest or weed control at 125 g/ha ([5]; 125 g ai/ha, scale 0 to 100 (0 no effect, 100 complete control), read-out: Crabgrass plant response rating) was 85%, the pest or weed control at 16 g/ha ([6]; 16 g ai/ha, read-out: Plant response rating (scale of 0 to 100), Nutsedge, Yellow) was 55% and the pest or weed control at 31 g/ha ([6]; 31 g ai/ha, read-out: Plant response rating (scale of 0 to 100), Nutsedge, Yellow) was 60%. It also gave a pest or weed control at 62 g/ha ([6]; 62 g ai/ha, read-out: Plant response rating (scale of 0 to 100), Nutsedge, Yellow) of 70%, a pest or weed control at 125 g/ha ([6]; 125 g ai/ha, scale 0 to 100 (0 no effect, 100 complete control), read-out: Nutsedge, Yellow plant response rating) of 75% and a pest or weed control at 16 g/ha ([7]; 16 g ai/ha, read-out: Plant response rating (scale of 0 to 100), Goosegrass) of 35%. For the same compound, the pest or weed control at 31 g/ha ([7]; 31 g ai/ha, read-out: Plant response rating (scale of 0 to 100), Goosegrass) was 60%, the pest or weed control at 62 g/ha ([7]; 62 g ai/ha, read-out: Plant response rating (scale of 0 to 100), Goosegrass) was 80% and the pest or weed control at 125 g/ha ([7]; 125 g ai/ha, scale 0 to 100 (0 no effect, 100 complete control), read-out: Goosegrass plant response rating) was 80%. For the same compound, the pest or weed control at 16 g/ha ([8]; 16 g ai/ha, read-out: Plant response rating (scale of 0 to 100), Cocklebur) was 75%, the pest or weed control at 31 g/ha ([8]; 31 g ai/ha, read-out: Plant response rating (scale of 0 to 100), Cocklebur) was 80% and the pest or weed control at 62 g/ha ([8]; 62 g ai/ha, read-out: Plant response rating (scale of 0 to 100), Cocklebur) was 90%. It also gave a pest or weed control at 125 g/ha ([8]; 125 g ai/ha, scale 0 to 100 (0 no effect, 100 complete control), read-out: Cocklebur plant response rating) of 100%, a pest or weed control at 16 g/ha ([9]; 16 g ai/ha, read-out: Plant response rating (scale of 0 to 100), Pigweed) of 95% and a pest or weed control at 31 g/ha ([9]; 31 g ai/ha, read-out: Plant response rating (scale of 0 to 100), Pigweed) of 100%. For the same compound, the pest or weed control at 62 g/ha ([9]; 62 g ai/ha, read-out: Plant response rating (scale of 0 to 100), Pigweed) was 100% and the pest or weed control at 125 g/ha ([9]; 125 g ai/ha, scale 0 to 100 (0 no effect, 100 complete control), read-out: Pigweed plant response rating) was 100%.
